Source: ChEMBL document CHEMBL1201862, “PubChem BioAssay data set” (2004)
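Cells were grown in 96-well plates and exposed to each compound for 48 hours at five concentrations; endpoints were interpolated linearly between bracketing concentrations, or set to the highest concentration if not reached. Abbreviation: GI50, concentration required for 50% inhibition of growth.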 The source made the active and inactive calls. No stated cut-off is given here; in the data, active = GI50 up to about 1.1 µM and inactive = higher.

How the values were obtained:
Experiment in all cases: DTP human tumour cell line panel, 48 h
DMS-273 = tested on: DMS-273
HOP-18 = tested on: HOP-18
LXFL 529 = tested on: LXFL 529
KM-20L2 = tested on: KM-20L2
DMS-114 = tested on: DMS-114
SNB-78 = tested on: SNB-78
DLD-1 = tested on: DLD-1
BT-549 = tested on: BT-549
RXF 631 = tested on: RXF 631

Row | SMILES | GI50 (DMS-273) | GI50 (HOP-18) | GI50 (LXFL 529) | GI50 (KM-20L2) | GI50 (DMS-114) | GI50 (SNB-78) | GI50 (DLD-1) | GI50 (BT-549) | GI50 (RXF 631)
1 | Oc1c(C(Nc2cccc3cccnc23)c2ccccc2)ccc2cccnc12 (stereo unspecified) | 5.16 µM (inactive) | 4.78 µM (inactive) | 4.13 µM (inactive) | 3.77 µM (inactive) | 2.65 µM (inactive) | – | – | – | –
2 | Nc1nc(=O)c2c([nH]1)NCC(CNc1ccc(C(=O)N[C@@H](CCC(=O)O)C(=O)O)cc1)N2C=O (stereo partly specified) [LEUCOVORIN CALCIUM] | > 125 µM (inactive) | > 125 µM (inactive) | – | > 125 µM (inactive) | > 125 µM (inactive) | > 125 µM (inactive) | > 125 µM (inactive) | – | –
3 | CC(C)OP(=O)(OC(C)C)/C(=N/Nc1ccc([N+](=O)[O-])cc1)Nc1ccc(N/C(=N\Nc2ccc([N+](=O)[O-])cc2)P(=O)(OC(C)C)OC(C)C)cc1 | 5.58 µM (inactive) | – | 19.6 µM (inactive) | 14.9 µM (inactive) | 9.51 µM (inactive) | – | 4.72 µM (inactive) | – | –
4 | Cc1ccc(-c2n[nH]c(=O)n2/N=C\c2ccccc2)cc1 | – | – | – | – | – | – | – | 10.1 µM (inactive) | –
5 | CC1=C[C@@H]2[C@@H](CC(CO)=C[C@H]3[C@@H]4C(C)(C)[C@]4(OCC(C)C)[C@H](OCC(C)C)[C@@H](C)[C@]23O)C1=O | – | – | – | – | – | – | – | 1.14 µM (inactive) | –
6 | O=S(O)CCCCCSSSCCCCCS(=O)O | – | – | 11.4 µM (inactive) | > 100 µM (inactive) | – | 45.6 µM (inactive) | 35.4 µM (inactive) | – | –
7 | COC(=O)C(=O)c1c2ccccc2n2ccc3c4ccccc4[nH]c3c12 | – | – | – | – | – | – | – | > 10 µM (inactive) | –
8 | O=C1CCC2=C(CCC2)N1CCc1ccc2c(c1)OCO2 | – | – | – | – | – | – | – | 20.8 µM (inactive) | –
9 | Cc1ccn2c(=O)cc(-c3ccccc3)nc2c1 | – | – | – | – | – | – | – | > 100 µM (inactive) | –
10 | C=C1C(=O)O[C@@H]2[C@H](O)[C@@H](C)[C@@H]3C=CC(=O)[C@@]3(C)[C@H](OC(=O)C=C(C)C)[C@H]12 | 1.48 µM (inactive) | 1.67 µM (inactive) | – | 1.66 µM (inactive) | 2.4 µM (inactive) | – | 0.277 µM (active) | – | –
11 | COC(=O)C1=C(C(=O)OC)C23CC1C1C(C(=O)OC)=C(C(=O)OC)C12C1C=CC3C2C(=O)OC(=O)C21 (stereo unspecified) | 36.6 µM (inactive) | – | 39.6 µM (inactive) | > 100 µM (inactive) | 26.6 µM (inactive) | 24.2 µM (inactive) | 76.9 µM (inactive) | – | 71.6 µM (inactive)
12 | NC(CCCCO)C(=O)O (stereo unspecified) | – | – | – | – | – | – | – | > 100 µM (inactive) | –
13 | CCCCCCCCCCCCCCCCCCOP(=O)([O-])OCC[N+](C)(C)C [OCTADECYLPHOSPHONOCHOLINE] | 1.74 µM (inactive) | 15.9 µM (inactive) | – | 3.38 µM (inactive) | 13.6 µM (inactive) | 10.2 µM (inactive) | 4.7 µM (inactive) | 1.22 µM (inactive) | –
14 | ClCCCN1CCN(CCCl)CC1 | 28.9 µM (inactive) | > 553 µM (inactive) | – | 269 µM (inactive) | 28.9 µM (inactive) | 135 µM (inactive) | 167 µM (inactive) | 124 µM (inactive) | –
15 | COC(=O)C(NC(=O)c1ccccc1)C(c1c(O)cc(O)cc1O)P(=O)(OC)OC (stereo unspecified) | 42.5 µM (inactive) | – | 54 µM (inactive) | > 100 µM (inactive) | > 100 µM (inactive) | – | > 100 µM (inactive) | – | > 100 µM (inactive)
16 | NC(=O)SCC(=O)Nc1ccc2ncccc2c1 | – | – | – | – | – | – | – | 74.5 µM (inactive) | –
17 | N#CCCN(CCC#N)c1ccc(C(=N/c2ccc(Cl)cc2)/N=N/c2ccc(Cl)cc2)cc1 | – | – | – | – | – | – | – | 14 µM (inactive) | –
18 | O=C(O)c1ccccc1CN1CCCC(C(=O)O)C1 (stereo unspecified) | – | – | – | – | – | – | – | > 100 µM (inactive) | –
